Laboratory results taken from paper PMC7377239, “Cardiovascular Effects of Polychlorinated Biphenyls and Their Major Metabolites” (Environmental Health Perspectives, 2020).
Read-outs that look alike come from different tables or passages of the source.

Legend:
HUVECs [1] = experiment: Tube formation (tubulogenesis) assay in HUVECs, 18 h; assay type: cell-based, human; conditions: Homo sapiens, HUVEC, 18 h; for activity at 0.1 µM: 0.10 µM
Procedure, shortened: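 HUVECs (passage 1–5) seeded on reduced-growth-factor basement membrane and exposed to compounds overnight at 37°C, 5% CO2, in 2× maintenance medium with 12.5 ng/mL VEGF; 0.5% DMSO vehicle. Calcein AM-stained tube networks imaged and analysed; vehicle-normalized readouts fit to four-parameter logistic, POD set at one SD of vehicle means.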

HUVECs [2] = experiment: High-content imaging cytotoxicity in HUVECs, 24 h; assay type: cell-based, human; conditions: Homo sapiens, HUVEC, 24 h; for viability at 0.01 µM / activity at 0.01 µM / viability at 0.1 µM / activity at 0.1 µM / viability at 1 µM / activity at 1 µM / viability at 10 µM / activity at 10 µM / viability at 100 µM / activity at 100 µM: 0.00 µM = 100.00; for viability at 0.1 µM / activity at 0.1 µM: 0.10 µM
Procedure, shortened: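 HUVECs (passages 1–5) grown to monolayer over 3–5 d, then exposed 24 h at 37°C, 5% CO2; stained with Hoechst 33342, MitoTracker Orange and calcein AM and imaged at 10×. Readouts normalized to 0.5% DMSO vehicle, four-parameter logistic fit; POD at one-SD cutoff, 100μM assigned when no response.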

[3] = HUVECs, 0.00 µM = 100.00, read-out: huvec.mtl.18hr
[4] = HUVECs, 0.00 µM = 100.00, read-out: huvec.tlps.18hr
[5] = HUVECs, 0.00 µM = 100.00, read-out: huvec.tta.18hr
[6] = HUVECs, 0.00 µM = 100.00, read-out: huvec.ttl.18hr
[7] = HUVECs, 24 hr, read-out: huvec.cyto.24hr
[8] = HUVECs, 24 hr, read-out: huvec.mito.24hr
[9] = HUVECs, 24 hr, read-out: huvec.mitoint.24hr
[10] = HUVECs, 24 hr, read-out: huvec.nma.24hr
[11] = HUVECs, 24 hrs, read-out: huvec.tc.24hrs

## Clc1ccc(Cl)c(-c2cc(Cl)ccc2Cl)c1 [PCB52]
HUVECs [1]; [3]
  activity at 0.01 µM: 105%
  activity at 0.1 µM: 111%
  activity at 1 µM: 108%
  activity at 10 µM: 100%
  activity at 100 µM: 97.2%
HUVECs [1]; [4]
  activity at 0.01 µM: 114%
  activity at 0.1 µM: 126%
  activity at 1 µM: 121%
  activity at 10 µM: 95%
  activity at 100 µM: 114%
HUVECs [1]; [5]
  activity at 0.01 µM: 103%
  activity at 0.1 µM: 105%
  activity at 1 µM: 86.8%
  activity at 10 µM: 99.7%
  activity at 100 µM: 94.8%
HUVECs [1]; [6]
  activity at 0.01 µM: 94.1%
  activity at 0.1 µM: 94.2%
  activity at 1 µM: 81.6%
  activity at 10 µM: 94.2%
  activity at 100 µM: 83.5%
HUVECs [1]; HUVECs, top concentration 100.00 µM, read-out: huvec.mtl.18hr POD
  minimal effective concentration: 100 µM
HUVECs [1]; HUVECs, top concentration 100.00 µM, read-out: huvec.tlps.18hr POD
  minimal effective concentration: 100 µM
HUVECs [1]; HUVECs, top concentration 100.00 µM, read-out: huvec.tta.18hr POD
  minimal effective concentration: 100 µM
HUVECs [1]; HUVECs, top concentration 100.00 µM, read-out: huvec.ttl.18hr POD
  minimal effective concentration: 100 µM
HUVECs [2]; [7]
  viability at 0.01 µM: 94.7%
  viability at 0.1 µM: 97.3%
  viability at 1 µM: 92.5%
  viability at 10 µM: 66.8%
  viability at 100 µM: 45%
HUVECs [2]; [8]
  activity at 0.01 µM: 94.8%
  activity at 0.1 µM: 96.5%
  activity at 1 µM: 92%
  activity at 10 µM: 60%
  activity at 100 µM: 20.7%
HUVECs [2]; [9]
  activity at 0.01 µM: 107%
  activity at 0.1 µM: 116%
  activity at 1 µM: 106%
  activity at 10 µM: 55.7%
  activity at 100 µM: 14.1%
HUVECs [2]; [10]
  activity at 0.01 µM: 101%
  activity at 0.1 µM: 97.7%
  activity at 1 µM: 100%
  activity at 10 µM: 74.2%
  activity at 100 µM: 49.2%
HUVECs [2]; HUVECs, 24 hr, top concentration 100.00 µM, read-out: huvec.cyto.24hr POD
  minimal effective concentration: 0.67 µM
HUVECs [2]; HUVECs, 24 hr, top concentration 100.00 µM, read-out: huvec.mito.24hr POD
  minimal effective concentration: 0.57 µM
HUVECs [2]; HUVECs, 24 hr, top concentration 100.00 µM, read-out: huvec.mitoint.24hr POD
  minimal effective concentration: 6.01 µM
HUVECs [2]; HUVECs, 24 hr, top concentration 100.00 µM, read-out: huvec.nma.24hr POD
  minimal effective concentration: 4.97 µM
HUVECs [2]; [11]
  viability at 0.01 µM: 94.7%
  viability at 0.1 µM: 97.3%
  viability at 1 µM: 92.5%
  viability at 10 µM: 66.8%
  viability at 100 µM: 45%
HUVECs [2]; HUVECs, 24 hrs, top concentration 100.00 µM, read-out: huvec.tc.24hrs POD
  minimal effective concentration: 0.67 µM

## Oc1ccc(O)c(-c2ccc(Cl)cc2)c1 [2',5'-diOH-PCB 3, 4-Chloro-2′,5′-dihydroxybiphenyl]
HUVECs [1]; tube formation mtl, read-out: POD huvec.mtl.18hr
  minimal effective concentration: 1.26 µM
HUVECs [1]; tube formation tlps, read-out: POD huvec.tlps.18hr
  minimal effective concentration: 1.55 µM
HUVECs [1]; tube formation tta, read-out: POD huvec.tta.18hr
  minimal effective concentration: 1.39 µM
HUVECs [1]; tube formation ttl, read-out: POD huvec.ttl.18hr
  minimal effective concentration: 1.23 µM
HUVECs [2]; cyto, 24 hr, read-out: POD huvec.cyto.24hr
  minimal effective concentration: 0.12 µM
HUVECs [2]; mito, 24 hr, read-out: POD huvec.mito.24hr
  minimal effective concentration: 0.13 µM
HUVECs [2]; mitoint, 24 hr, read-out: POD huvec.mitoint.24hr
  minimal effective concentration: 3.51 µM
HUVECs [2]; nma, 24 hr, read-out: POD huvec.nma.24hr
  minimal effective concentration: 8.87 µM
HUVECs [2]; tc, 24 hr, read-out: POD huvec.tc.24hr
  minimal effective concentration: 0.12 µM
